The nature of data set [1]: Microsomal metabolism. It is filed as in vitro ADME. The conditions noted are these: rat liver microsomes, without NADPH regenerating system.
Another data set is described as follows: PAMPA-GIT permeability. Conditions: PAMPA-GIT conditions. The source says: (§1) The parallel artificial membrane permeability assay uses 96-well plate in a “sandwich” type system, where one plate overlaps the other (PAMPA). […] The lipid mixture that impregnates the PVDF filter has a different constitution for the permeability tests for the blood-brain barrier (Brain lipid from pig extract in dodecane) and gastro-intestinal tract (L-α soy phosphatidylcholine in dodecane). In the PAMPA BBB and TGI assays, the optical density values obtained in the reading at each selected wavelength, for each of the compounds were analyzed in comparison with the values of several controls. In the case of the BBB, these values were used to elaborate an equation and determine the permeability coefficient (Pe), using a previously elaborated spreadsheet, and, for the TGI, these values were used to determine the absorbed fraction (Fa%), both using the Excel® program.
On the technique in general: The PAMPA barrier holds no transporters, so it reflects passive diffusion.

Data set [2] is described as follows: Aqueous solubility by UV spectroscopy. It is filed as physicochemical. Conditions: phosphate buffer solution, buffer solution pH 7.4, 37 °C. As for the experimental part:
The solubility assay was carried out by correlating the concentration with the absorbance obtained by ultraviolet. First, a stock solution of the compound was prepared by dissolving 1 mg in 20 mL of methanol, and then the wavelength of greatest absorption of each compound was obtained by scanning between wavelengths from 200 nm to 500 nm. From the stock solution, six dilutions were prepared (dilution factor: 2.5), and the absorbance reading was performed in quartz cuvettes (10 mm optical path) in the UV-VIS spectrophotometer (Femto 800XI) at the previously determined wavelength. With the values obtained, a calibration curve with linear regression was made, in which the linearity of the analytical method is observed, with values of correlation coefficient (p > 0.95).
The compound was dissolved in a phosphate buffer solution (pH 7.4), prepared according to the Brazilian Pharmacopoeia (Vol.1) to obtain a supersaturated solution. The supersaturated aqueous solution was kept under stirring for 4 hours at 37°C and then the sample was filtered on a 0.45 μm filter to carry out the reading at the corresponding wavelength of the compound. The solubility was then determined through the equation of the straight line obtained by the linear regression of the calibration curve of each compound [19].

Data set [3] can be described thus: Microsomal metabolism. It is filed as in vitro ADME. Conditions: rat liver microsomes. How it is done: The study of the microsomal metabolism of the compounds was evaluated by placing 1 mg/ml rat liver microsome in a microcentrifuge tube, in the presence of a NADPH generator system (1 mM NADP^+, 1.5 mM MgCl2, 3.5 mM glucose-6-phosphate and 0.5 U/mL glucose-6-phosphate dehydrogenase) and phosphate buffer pH 7.4 in sufficient quantity for 250 μL. After 15 minutes of pre-incubation at 37°C in a water bath, the enzymatic reactions were started by adding 2 μL of a stock solution 1 mM from one of the prototypes (500 μL 20% DMSO 80% CH3CN), so that a final concentration of 5 μM was reached (0.2% DMSO, 0.8% acetonitrile).
Then, the samples were again incubated at 37°C under agitation for predetermined and fixed periods (0, 15, 30, 45 and 60 minutes). At the end of the incubation period 500 μL of cold methanol and 500 μL of cold acetonitrile containing 5 μM of methyl 1,1’biphenyl-4-carboxylate 5 μM (internal standard) were added to the wells to stop the reaction and the samples were homogenized and kept in an ice bath to accelerate protein precipitation. The mixture was centrifuged at 24500 x g for 15 minutes at 4°C (Universal centrifuge 320R Hettich®). Finally, the supernatant (1 mL) was filtrated and placed in vials to be analyzed by HPLC-PDA, Shimadzu—LC20AD, Kromasil C-18 column (4.6 mm x 250 mm, 5 μm), SPD M20A diode array detector, flow 1 mL/min, mobile phase acetonitrile: water 1:1 (v/v) for LASSBio-1491 and acetonitrile: water 60:40 (v/v) for LASSBio-1736, 20 minutes at 254 nm wavelength. Then, the microsomal half-life and clearance were calculated.
For orientation: Liver microsomes are a subcellular fraction often used to study metabolism.

The nature of the next data set: Plasma stability. The class given is in vitro ADME, rat. How it is done:
For analysis of plasma stability, the LASSBio-1491 in a final concentration of 5 μM from stock solution of 1 mM, was added in 50 μL of rat plasma solution diluted in 250 μL with PBS (pH 7.4) and was placed in a shaker at 37 °C under vigorous stirring for 0, 30, 60, 120 and 240 minutes. After each reaction time, 500 μL of cold methanol and 500 μL of cold acetonitrile containing 5 uM of methyl 1,1’biphenyl-4-carboxylate 5 μM (internal standard) were added to the wells to stop the reaction. The solution was mixed and centrifuged at 24500 x g for 15 min (Universal centrifuge 320R Hettich®). The supernatant (1 mL) was filtrated and placed in vials to be analyzed by HPLC-PDA, Shimadzu—LC20AD, Kromasil C-18 column (4.6 mm x 250 mm, 5 μm), SPD M20A diode array detector, flow 1 mL/min, mobile phase acetonitrile: water 1:1 (v/v) for LASSBio-1491 and acetonitrile: water 60:40 (v/v) for LASSBio-1736, for 20 minutes at 254 nm wavelength.

The nature of another data set: PAMPA-BBB permeability.
Text: as §1

On the set-up of data set [4]: method as in PMID 35497630. The conditions noted are these: cited from earlier work.
Details of data set [5]: method as in PMID 35497630, PMID 29160126. Conditions: cited from earlier work.

Several values for one entry are separate records, joined by “and”; a condition that tells them apart may be missing. Identical values can stand only once.

The text below walks through data of publication PMC9170106, “Pre-clinical evaluation of LASSBio-1491: From in vitro pharmacokinetic study to in vivo leishmanicidal activity” (PLoS ONE, 2022).

The term solubility denotes the dissolved amount per volume that the medium holds. A low value points to little dissolved substance. What is called half-life is the time needed for the level to fall by half in the phase considered. The low end stands for rapid decline, the high end for slow decline. The microsomal CLint is a measure of how fast metabolising enzymes remove a compound, apart from limits set by blood flow. For orientation: Papp means a coefficient for how fast a substance crosses the barrier.

For the compound `O=C(N/N=C/c1ccc(C(F)(F)F)cc1)NNC(=O)c1ccc(Cl)cc1Cl` [LASSBio-1736], the “Metabolism rate non co-factor” value in “Microsomal metabolism [1]” is 5.81%. The “solubility in the PAMPA-GIT experimental set” value in the data set “PAMPA-GIT permeability” is listed as “insoluble”. Further, in data set [2], the solubility at 4 h was 0.26 µM and 0.109 µg/mL. For the same compound, the half-life at 5 μM in the data set “Microsomal metabolism [3]” (pH 7.4, with co-factor) is 3.5 h; in the data set “Plasma stability” (rat, rat plasma diluted with PBS, pH 7.4, rat plasma) it was 19.2 h. The same compound returned a microsomal CLint at 5 μM in “Microsomal metabolism [3]” (pH 7.4, with co-factor, Volume x (0,693/t1/2)) of 0.825 µL/min/mg. Besides, in “Microsomal metabolism [3]” (with NADPH regenerating system), the “Metabolism rate with co-factor” value came out at 18.33%. The “Elimination rate constant (k)” value came to 0.0033 in the data set “Microsomal metabolism [3]” (with co-factor) and 0.0004 in the data set “Plasma stability” (rat plasma). The Clapp in the data set “Microsomal metabolism [3]” (with co-factor, scaled to liver and rat weight) was 0.128 mL/min/kg. The same compound showed a t1/2 in the data set “Plasma stability” (rat plasma) of 28.9 h. The compound further registered a Metabolism rate in “Plasma stability” (rat plasma, 5 μM, 37 °C, up to 240 min) of 7.30%. Further, the recovery at 5 μM in “Plasma stability” (rat, rat plasma diluted with PBS, pH 7.4, read-out: Recovery rate) amounted to 59.9%. The compound further registered an apparent permeability coefficient (Papp) in “PAMPA-BBB permeability” (PAMPA) of 10.6 ×10⁻⁶ cm/s. In “PAMPA-BBB permeability” (PAMPA-BBB), the Classification entry is “CNS+”. The “signals of hepatic or renal toxicity” value in data set [4] is “no preliminary signals of hepatic or renal toxicity”. Moreover, the “stability in rat plasma” value in data set [5] is listed as “great stability in rat plasma”.
